One test relates to monoclonal antibody 2F2. Nature of the test: Inhibition of 2F2 binding to immobilized (DRADGQPAG)2 by synthetic peptides. The following applies: competing peptide 25 micrograms/ml. The text has this: (§1) Monoclonal-antibody 2F2 from Example 5 was serially diluted in PBS-BSA (indicated in FIG. 5 by black triangles); or in PBS-BSA containing 25 micrograins/ml of synthetic peptide (NANP)3 (indicated by open triangles); or in PBS-BSA containing 25 micrograms/ml of the synthetic peptide of Example 4, i.e. (DRADGQPAG)2 (indicated by black circles).
(§2) An unrelated monoclonal-antibody 2AlO (anti-falciparum CS protein) was serially diluted in PBS-BSA (indicated by open squares). […] of each dilution were delivered to the bottom of microtiter plates which had previously been coated with a synthetic peptide (DRADGQPAG)2 saturated with 1% BSA. After 1 hour of incubation, the wells were washed with PBS-BSA in 50 microliters of ^125 I-labelled affinity-purified goat anti-mouse IgG (10^5 cpm; specific activity about 2×10^6 cpm/microgram). After an additional hour of incubation, the wells were washed with PBS-BSA and counted.

In test [1] the test system is binding of a monoclonal antibody to extracts of sporozoites from a New Guinea vivax malaria. Nature of the test: Competition of peptide with monoclonal antibody binding to New Guinea vivax sporozoite extracts. Also noted: species or system P. vivax. The text has this:
Thus, although the P. vivax CS gene was isolated from a Brazilian strain of P. vivax, the epitope deduced from the sequence of the cloned gene appears to be present in all P. vivax CS proteins so far studied. The characterization of this gene and its encoded amino acid sequence allows synthesis of large amounts of the repetitive epitope and other antigenically active regions of the P. vivax CS protein and development of a protective vaccine using peptides corresponding to such regions.

For test [2], the system named is binding of monoclonal antibody 2F2 to immobilized P. vivax sporozoite extract. Nature of the test: Inhibition of the binding of labelled monoclonal antibody 2F2 to immobilized P. vivax extracts. The following applies: at 0: 16,387 ± 1,085 cpm. On the procedure:
100,000 cpm of 2F2 antibody labelled by ^125 I having a specific activity of about 2×10^6 cpm/microgram was diluted in PBS containing 1% BSA. The buffer also contained varying amounts of the synthetic peptide. The mixture was added to microtiter wells coated with P. vivax sporozoite extract. After one hour incubation in room temperature, the wells were washed three times with PBS containing 1% BSA and counted in the gamma counter.

The subject of test [3] is anti-P. falciparum antibody 2AlO. Description: Inhibition of binding of anti-P. falciparum antibody 2A10 to (NANP)3.
Text: as §1, §2
In other similar experiments, the binding of the anti-P. falciparum antibody 2AlO to the corresponding epitope (NANP)3 was not inhibited by the synthetic peptide (DRADGQPAG)2.^1

The subject of another test is porcine elastase. Nature of the test: Elastase treatment of CS protein, reactivity with monoclonal antibodies. In kind it is biochemical. From the text:
(c) One possible reading frame coded for an alanine-rich peptide.

The test system of test [4] is binding of monoclonal antibody (2G3) to the CS protein of P. knowlesi. Nature of the test: 12-MER inhibition of binding of monoclonal antibody 2G3 to the CS protein of P. knowlesi. From the text:
Wells of microtiter plates were coated with the monoclonal antibody 2G3 washed with Tween-20, saturated with BSA as described supra. In one series of tubes, the 12-MER was serially diluted in PBS-BSA-Tween 20. In a second series of tubes, an extract of P. knowlesi sporozoites (prepared as described by Cochrane et al., supra) was serially diluted in PBS-BSA-Tween20. Aliquots of each dilution of sporozoites were mixed with equal volumes of all dilutions of 12-MER. 30 μI of these mixtures were then added to the bottom of the 2G3-coated wells. As positive and negative controls, 30 μl aliquots of sporozoite dilutions mixed with PBS-BSA-Tween 20 were added to other wells which had been precoated with 2G3 or with a non-relevant monoclonal antibody. After overnight incubation in the refrigerator, the wells were washed and 50 μl ([…]) of ^125 I-labeled 2G3 diluted in PBS-BSA-Tween 20 were added. Following an additional incubation at room temperature for 1 hour, the wells were washed and counted in a gamma counter.

Another test has as its system monoclonal antibody 2G3. Description: Two-site immunoradiometric assay performed with monoclonal antibody 2G3 and synthetic peptides. It is filed as binding. On the procedure: The two synthetic peptides described in Example 7 were used in these studies. One of them was composed of the 12 amino acid sequence. H2 N-GlnAIaGlnGlyAspGlyAlaAsnAlaGlyGlnPro-COOH (12-MER) and the other was a dimer of the same sequence (24-MER). […] The assay was performed as follows:
Wells of microtiter plates (Falcon 3911) were incubated overnight at 4° C. with 50 μl of a 10 μg/ml solution in PBS of the monoclonal 2G3 anti-CS protein of P. knowlesi. The wells were washed with PBS and then incubated for 2 hours at room temperature, with PBS-Tween 20 (0.05% (w/v), and then for 3 additional hours with PBS-BSA (1% (w/v)). The synthetic peptides were diluted serially in PBS-BSA-Tween 20, and 30 μl aliquots of the dilutions were delivered to the bottom of individual wells. The plates were incubated overnight in the refrigerator, washed with PBS-BSA-Tween 20, and incubated with […] (10 ng) of ^125 I-labeled monoclonal antibody 2G3 diluted in PBS-BSA-Tween 20 (about 100,000 cpm). Controls consisted of plates coated with a non-relevant monoclonal antibody of the same isotype as 2G3.

Where two headings read alike, the source gives them in different places. Where no end group is shown, it is not given here.

Take “H-(Asp-Gly-Gln-Pro-Ala-Gly-Asp-Arg-Ala)2 [(DRADGQPAG)2]”: the “inhibition of binding of 2F2 to immobilized (DRADGQPAG)2” value in the test on monoclonal antibody 2F2 is on record as “totally inhibited”. In addition, the “competition with binding of monoclonal antibody to sporozoite extracts” value in test [1] is listed as “can compete”. Also, the “Bound 125I-labeled 2F2” value is on record as 3,146 cpm in test [2] (synthetic peptide 0.2 micrograms/ml); 2,130 cpm in test [2] (synthetic peptide 2 micrograms/ml); 1,091 cpm in test [2] (synthetic peptide 20 micrograms/ml); 842 cpm in test [2] (synthetic peptide 200 micrograms/ml, mean of counts in four wells). In addition, the “inhibition of binding of 2AlO to (NANP)3” value in test [3] is on record as “not inhibited”.
For OOC-Ala Ala Pro Ala, the “inactivation of CS protein by elastase in presence of inhibitor” value with porcine elastase is recorded as “reversed”.
For “QAQGDGANAGQP [12-MER, H2 N-GlnAIaGlnGlyAspGlyAlaAsnAlaGlyGlnPro-COOH]”, the “inhibition of interaction of P. knowlesi CS protein with monoclonal antibody” value in test [4] was “inhibited, in a dose-dependent fashion”; in test [4] (listed as monomer), “compete with and specifically inhibit”. Also, the “Amount of 2G3 bound in the presence of 12-MER inhibitor” value in test [4] (10^3 sporozoites/ml, 12-MER 0.08 mg/ml, 156 cpm at 0) is 72 cpm; in test [4] (10^3 sporozoites/ml, 12-MER 0.6 mg/ml, 156 cpm at 0), 0 cpm; in test [4] (10^3 sporozoites/ml, 12-MER 5.0 mg/ml, 156 cpm at 0) it was 37 cpm; in test [4] (10^4 sporozoites/ml, 12-MER 0.08 mg/ml, 1353 cpm at 0), 102 cpm; in test [4] (10^4 sporozoites/ml, 12-MER 0.6 mg/ml, 1353 cpm at 0), 70 cpm; in test [4] (10^4 sporozoites/ml, 12-MER 5.0 mg/ml, 1353 cpm at 0), 3 cpm. Also, the “Amount of 2G3 bound in the presence of 12-MER inhibitor” value in test [4] (10^5 sporozoites/ml, 12-MER 0.08 mg/ml, 4390 cpm at 0) turned out to be 1221 cpm; in test [4] (10^5 sporozoites/ml, 12-MER 0.6 mg/ml, 4390 cpm at 0), 781 cpm; in test [4] (10^5 sporozoites/ml, 12-MER 5.0 mg/ml, 4390 cpm at 0), 361 cpm; in test [4] (10^6 sporozoites/ml, 12-MER 0.08 mg/ml, 5582 cpm at 0), 3893 cpm; in test [4] (10^6 sporozoites/ml, 12-MER 0.6 mg/ml, 5582 cpm at 0) it was 3018 cpm; in test [4] (10^6 sporozoites/ml, 12-MER 5.0 mg/ml, 5582 cpm at 0) it was 1099 cpm. Besides, the “two-site radioimmunoassay reactivity” value with monoclonal antibody 2G3 (monoclonal antibody to P. knowlesi CS protein) is reported as “did not bind”. Also, the “Amount of radiolabeled 2G3 bound” value in the test on monoclonal antibody 2G3 (peptide 5 ug/ml) amounted to 40 cpm; with monoclonal antibody 2G3 (peptide 50 ug/ml) it was 103 cpm; in the test on monoclonal antibody 2G3 (peptide 500 ug/ml), 157 cpm; in the test with monoclonal antibody 2G3 (peptide .5 ug/ml), 0 cpm.

Source of the values: patent US5700906A, “Immunogenic peptide antigen corresponding to plasmodium vivax circumsporozoite protein” (New York University, priority 1987, dated 1997).
